According to article PMC9104013, “Role of Polyamine-Induced Dimerization of Antizyme in Its Cellular Functions” (International Journal of Molecular Sciences, 2022):

Legend:
[1] = test system: transgenic rats with activated polyamine catabolism; parameters: method as in PMID 12181316, PMID 19956991, PMID 20453551; conditions: cited from earlier work
hair follicle cycle = test system: hair follicle cycle; parameters: method as in PMID 19956989; conditions: mice; cited from earlier work
[2] = test system: polyamine uptake in OAZ1-overexpressing DU145 cells; test: [14C]-Put and -Spd uptake in OAZ1-overexpressing DU145 cells; assay type: cell-based; conditions: DFMO 5 mM 3 days, DOX 1 μg/mL 2 days, analogue 100 μM 4 h with APCHA 50 μM, AG 1 mM; 20 min uptake
Experimental: OAZ1-overexpressing DU145 cells were plated onto 6-well plates and incubated overnight. The cells were first treated with DFMO (5 mM) for 3 days, after which DOX (1 μg/mL) was added for further 2 days to induce OAZ1 overexpression. Then, AG (1 mM), APCHA (50 μM), and Spd/analogue (100 μM) were added for 4 h. The plates were washed with warm DMEM and incubated for 20 min in [^14C]-Put or [^14C]-Spd labeling mix (10 μM Put/Spd, specific activity 25 mCi/mmol, in DMEM). The plates were washed twice with ice-cold PBS and lysed to 0.5 mL of 0.1 M NaOH. An aliquot was taken for measurement of ^14C radioactivity, and the counts were normalized to total protein in the sample.

ODC = test: In vitro effect of Spd and its analogues on ODC activity in cytosolic extract; assay type: biochemical; conditions: 1 mM, ODC-enriched extract plus extract from OAZ1-overexpressing cells
Experimental: ODC-enriched lysate was prepared from subconfluent DU145 cells 6 h after medium change by lysing the cells in buffer containing 25 mM Tris-HCl, pH 7.4, 1 mM DTT, and 0.01% Tween-80. OAZ1-enriched lysate was prepared from OAZ1-overexpressing DU145 cells in the same buffer. The lysate was cleared by centrifugation, and the endogenous polyamines were removed by ultrafiltration through 3K-cutoff filter and washing twice with lysis buffer. In experiment 1, ODC-enriched cytoplasmic extract (~100 μg of total protein) was incubated for 30 min at +37 °C in the presence of 1 mM Spd or analogues before ODC activity assay. In experiment 2, ODC-enriched cytoplasmic extract (~100 μg of total protein) was incubated for 30 min at +37 °C with OAZ1-enriched cytoplasmic extract (~100 μg of total protein) in the presence of 1 mM Spd or analogues before ODC activity assay.

CC(N)CCNCCCCN (stereo not drawn) [1-MeSpd]
Acute pancreatitis [1]: prevented acute pancreatitis | Liver regeneration [1]: restored liver regeneration | Hair follicle cycle (hair follicle cycle): activate the hair follicle cycle

CC(CN)CNCCCCN (stereo not drawn) [2-MeSpd]
Downregulation of [^14C]-Put uptake [2]: weakest downregulation | Downregulation of [^14C]-Spd uptake [2]: weakest downregulation

NCCCCNCCCN [Spd, spermidine]
Effect on the ability of OAZ1 to inhibit ODC activity in vitro (ODC): did not affect the ability of OAZ1 to inhibit ODC activity
